Patent publication US20200231685A1, “CONJUGATES FOR TREATING INFLAMMATORY DISEASE AND IDENTIFICATION OF PATIENTS LIKELY TO BENEFIT FROM SUCH TREATMENT” (The University of Bristol, priority 2013, published 2020)

Columns and labels:
[1] = system: Experimental Autoimmune Uveitis (EAU); type: in vivo, mouse; settings: Day 18; PMA and ionomycin 4 hours
[2] = system: Th0 (CCR6-) cells; test: Intracellular IFNγ expression by flow cytometry in human Th0 cultures; type: cell-based; settings: 24 hrs incubation
From the text: (§1) FIGS. 23A-23B show suppression of IL-17A in human Th17 (CCR6+) cells and IFNγ cytokine production in human Th0 (CCR6^−) and Th17 cells. CCR6 positive and CCR6 negative CD4^+ T cells were purified and cultured in the presence of polarising cytokines for two weeks. […] Intracellular cytokines were quantified by flow cytometry (FIG. 23A) and percentage suppression calculated in relation to an untreated control (FIG. 23B). Data represents the mean expression of three to four normal volunteers, with error expressed as standard deviation.
Cell Cultures. Murine Naive T cells were obtained from lymph nodes and spleens of OT-II/3A9 mice using CD4 positive selection kits following the manufacturer's instructions (Miltenyi Biotech). Splenocytes from respective wild-type mice were irradiated and mixed with the CD4^+ T cells at a 1:10 ratio. […] All cells were kept in a 37° C., 5% CO2 humidified incubator. Cells were used after two rounds of activation. […]

[3] = system: Th17 (CCR6+) cells; test: Intracellular IL-17 / IFN-γ expression by flow cytometry in human Th17 cultures; type: cell-based
From the text: Absolute expression was plotted on a log2 scale colour coded from low to high expression. […] All data are represented as mean±SEM.
as §1, with “CCR6” for “FIGS. 23A-23B show suppression of IL-17A in human Th17 (CCR6+) cells and IFNγ cytokine production in human Th0 (CCR6^−) and Th17 cells. CCR6”
Therefore, to determine whether in vitro, human CD4+Th17 T cells were responsive to glucocorticoids, we generated an IL-17 secreting CD4+ T cell subset using the innate expression of CCR6. […] As a result of glucocorticoid binding the glucocorticoid receptor (GR), the GR translocates to the nucleus and binds to glucocorticoid-response elements within the DNA. […] We then compared the translocation of the GR in Th17 and Th0 cells.
Cell Cultures. Murine Naive T cells were obtained from lymph nodes and spleens of OT-II/3A9 mice using CD4 positive selection kits following the manufacturer's instructions (Miltenyi Biotech). Splenocytes from respective wild-type mice were irradiated and mixed with the CD4^+ T cells at a 1:10 ratio. […] All cells were kept in a 37° C., 5% CO2 humidified incubator. Cells were used after two rounds of activation. Human peripheral CD4^+CCR6^− (Th0) and CD4^+CCR6^+ (Th17) cells were FACS sorted, resuspended to 2×10^6cells/ml in complete RPMI-1640 (Invitrogen) supplemented with 10% FCS, L-glutamine and Penicillin/streptomycin (all PAA Laboratories Ltd, UK), stimulated with plate-bound 5 μg/ml anti-CD3 and 5 μg/ml anti-CD28 antibodies (eBioscience, US) (Th0) or with plate-bound antibodies and a polarizing cytokine cocktail of 20 ng/ml IL-6, 10 ng/ml IL-23, 10 ng/ml IL-1β (R&D Systems, US), 100 ng/ml anti-IFN-γ, 100 ng/ml anti-IL-4 (eBioscience, US) (Th17) for 3 days. […]

[4] = system: CD4+ T cells; test: Inhibition of isolated CD4+ T cell proliferation (tritiated thymidine incorporation); type: cell-based, human
Protocol: Proliferation was measured by tritiated thymidine incorporation (ccpm). Data represents the mean of two normal volunteers, with error expressed as standard deviation.
T Cell Proliferation Assays. T cell proliferation was measured by pulsing with 18.5 kBq [^3H] thymidine (GE Healthcare, US) per well for the final 12 hours of cultures and determining thymidine uptake in counts per minute (c.p.m).

C[C@@H]1C[C@H]2[C@@H]3CCC4=CC(=O)C=C[C@]4(C)[C@@]3(F)[C@@H](O)C[C@]2(C)[C@@]1(O)C(=O)CO [Dex, dexamethasone]
suppression of IFN-γ expression in eye infiltrating CD4+ cells [1]: 45%

C=CC[C@@H]1/C=C(\C)C[C@H](C)C[C@H](OC)[C@H]2O[C@@](O)(C(=O)C(=O)N3CCCC[C@H]3C(=O)O[C@H](/C(C)=C/[C@@H]3CC[C@@H](O)[C@H](OC)C3)[C@H](C)[C@@H](O)CC1=O)[C@H](C)C[C@@H]2OC [tacrolimus]
suppression of IFNγ production in Th0 (CCR6-) cells [2]: equally suppress | suppression of IFNγ production in Th17 cells ([3]; 24 hrs incubation): equally suppress | suppression of IL-17A production in Th17 (CCR6+) cells ([3]; 24 hrs incubation): equally suppress | dose required for cytokine suppression, less than cyclosporine A ([3]; IL-17 in Th17, IFNγ in Th17 and Th0 cells): 20 × | concentration for full inhibition of CD4+ cell proliferation, lower compared with cyclosporine A [4]: 20 fold | dose achieving the same inhibition of CD4+ T cell proliferation [4]: 10 ng/mL
